Results published in PubChem BioAssay AID2060600 (Molecular Pharmacology Branch, DTP, NCI, 2025).
Several values for one entry are separate records, joined by “and”; a condition that tells them apart may be missing. Identical values can stand only once. Blank lines part the entries; values can stand above or below the compound they belong to.

System: 996289-038-R-J1-PDC complex spheroid viability
Test: Anticancer human tumor 996289-038-R-J1-PDC patient-derived colon adenocarcinoma cell line growth inhibition [CLK]
Conditions: for viability, T/C: stronger effect = lower value
Excerpt: A high-throughput screen of multi-cell type tumor spheroids was designed to identify active combinations of […] and targeted small molecules. Complex spheroids include a stromal component modeled by human endothelial cells (HUVEC) and fibroblasts modeled by human mesenchymal stem cells (MSCs). The concentration ranges selected for each drug and investigational agent were based upon clinically achievable concentrations if the clinical Cmax of the agent was known.
Compounds. The drugs and investigational agents: cirtuvivint (SM08502; NSC835563), CC-671 (NSC850746), vemurafenib (NSC761431), tapotoclax (NSC804041), sotorasib (NSC818433), adagrasib (NSC831453), MRTX-1133 (NSC836407), BAY2416964 (NSC825713), copanlisib (NSC816437), inavolisib (NSC800729), abemaciclib (NSC768073), osimertinib (NSC779217), entinostat (NSC756642), eltanexor (KPT-8602, NSC794443), venetoclax (NSC766270), ceralasertib (NSC777638), bortezomib (NSC756655), olaparib (NSC753686), talazoparib (NSC767125), alisertib (NSC759677), peposertib (NSC802822), gemcitabine (NSC613327), 5-fluorouracil (NSC19893), SN-38 (NSC673596), oxaliplatin (NSC266046), paclitaxel (NSC125973), and doxorubicin (NSC123127), were obtained from the National Cancer Institute (NCI) Developmental Therapeutics Program Chemical Repository. The FDA-approved anticancer drug set is available from the Developmental Therapeutics Program at https://dtp.cancer.gov/organization/dscb/obtaining/available plates.htm. […] The stock solutions were prepared in dimethyl sulfoxide (DMSO, Sigma-Aldrich, St. Louis, MO, cat. D2650), except for the platinum complexes which were prepared in saline (Quality Biological, Gaithersburg, MD, cat. 114-055-101), at 800-fold the tested concentration and stored at -70 degrees C prior to their use. All drugs and investigational agents were tested over a range starting from a high concentration at or near the clinical Cmax and decreasing in half-log increments. If the clinical Cmax for an agent had not been determined, the highest concentration tested was 10 microM.
Cell Culture. All cells were maintained in an incubator at 37 degrees C and 5% CO2 with 95% humidity. The PDC lines were cultured according to standard operating procedures established by the NCI PDMR. Briefly, all PDCs were thawed and cultured in Matrigel-coated flasks prepared with a working solution of 1X Ham's F-12 nutrient mix, without supplementation (Invitrogen, Waltham, MA, cat. 11765054), 100 U/mL penicillin-streptomycin (Invitrogen, cat. 15140122), and 2.5% Matrigel (Corning Inc., Corning, NY, cat. 354248) for the first three passages. The 947758-054-R-J2-PDC line was cultured in 6B/Colon 1A media, which includes advanced DMEM/F-12 (Thermo Fisher Scientific, cat. 12634028), 10 mM HEPES (Thermo Fisher Scientific, cat. 15630080), 1X GlutaMAX supplement (Thermo Fisher Scientific, cat. 35050061), 0.1 mg/mL primocin (InvivoGen, cat. ant-pm-2), 10% defined fetal bovine serum, heat inactivated (HyClone Laboratories Inc., cat. SH30070.03HI), 1.25 mM N-Acetyl-L-cysteine (Sigma-Aldrich, cat. A9165), 10 mM nicotinamide (Sigma-Aldrich, cat. N0636), 1X B-27 supplement (Thermo Fisher Scientific, cat. 17504044), 1X N-2 supplement (Thermo Fisher Scientific, cat. 17502048), and 10 microM Y-27632 dihydrochloride (Tocris Bioscience, cat. 1254). The 876862-298-R-J1-PDC was cultured in 6E media, which includes all 6B/Colon 1A media components plus 50% L-WRN conditioned media (ATCC, cat. CRL-3276), 50 ng/mL recombinant human EGF recombinant protein (hEGF; Thermo Fisher Scientific, cat. PHG0311), 10 ng/mL recombinant human fibroblast growth factor 10 (hGFG-10; PeproTech, cat. 100-26), 1 ng/mL recombinant human fibroblast growth factor 2 (hFGF-2; PeproTech, cat. 100-18B), and 1 µM prostaglandin E2 (PGE2; Tocris, cat. 2296). The 227483-062-R1-J1-PDC line was cultured in Panc media, containing all 6E components except hFGF-2, with the addition of 500 nM SB-431542 (Selleckchem, cat. S1067) and 10 nM gastrin (Tocris, cat. 3006). […]

[1] = curve of first compound, second compound 0.0316 µM
[2] = curve of first compound, second compound 0.1 µM
[3] = curve of first compound, second compound 0.316 µM
[4] = curve of first compound, second compound 1 µM
[5] = curve of first compound, second compound 3.16 µM
[6] = curve of first compound, second compound 10 µM
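Further: spheroids exposed to the agents for 7 days before readout.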

Compound: C=CC(=O)Nc1cc(Nc2nccc(-c3cn(C)c4ccccc34)n2)c(OC)cc1N(C)CCN(C)C + CN1CCN(c2cc(C(=O)Nc3cc4cc(-c5cnn(C)c5)ccc4cn3)ccn2)CC1
- IC50 [1]: > 300 nM
- IC50 [2]: > 300 nM
- IC50 [3]: 91 nM
- IC50 [4]: < 0.949 nM
- IC50 [5]: < 0.949 nM
- IC50 [6]: < 0.949 nM
- viability, T/C (second compound 0.0316 µM, first compound 0.000949 µM): 104%
- viability, T/C (second compound 0.0316 µM, first compound 0.003 µM): 104%
- viability, T/C (second compound 0.0316 µM, first compound 0.00949 µM): 105%
- viability, T/C (second compound 0.0316 µM, first compound 0.03 µM): 103%
- viability, T/C (second compound 0.0316 µM, first compound 0.0949 µM): 99.8%
- viability, T/C (second compound 0.0316 µM, first compound 0.3 µM): 74.7%
- viability, T/C (second compound 0.1 µM, first compound 0.000949 µM): 93.7%
- viability, T/C (second compound 0.1 µM, first compound 0.003 µM): 93.7%
- viability, T/C (second compound 0.1 µM, first compound 0.00949 µM): 91.2%
- viability, T/C (second compound 0.1 µM, first compound 0.03 µM): 84.4%
- viability, T/C (second compound 0.1 µM, first compound 0.0949 µM): 86%
- viability, T/C (second compound 0.1 µM, first compound 0.3 µM): 65.9%
- viability, T/C (second compound 0.316 µM, first compound 0.000949 µM): 74.2%
- viability, T/C (second compound 0.316 µM, first compound 0.003 µM): 69%
- viability, T/C (second compound 0.316 µM, first compound 0.00949 µM): 63.5%
- viability, T/C (second compound 0.316 µM, first compound 0.03 µM): 56.8%
- viability, T/C (second compound 0.316 µM, first compound 0.0949 µM): 53.5%
- viability, T/C (second compound 0.316 µM, first compound 0.3 µM): 37.2%
- viability, T/C (second compound 1 µM, first compound 0.000949 µM): 6.28%
- viability, T/C (second compound 1 µM, first compound 0.003 µM): 6.22%
- viability, T/C (second compound 1 µM, first compound 0.00949 µM): 7.21%
- viability, T/C (second compound 1 µM, first compound 0.03 µM): 6.93%
- viability, T/C (second compound 1 µM, first compound 0.0949 µM): 4.43%
- viability, T/C (second compound 1 µM, first compound 0.3 µM): 1.67%
- viability, T/C (second compound 3.16 µM, first compound 0.000949 µM): 0.79%
- viability, T/C (second compound 3.16 µM, first compound 0.003 µM): 1.11%
- viability, T/C (second compound 3.16 µM, first compound 0.00949 µM): 1.16%
- viability, T/C (second compound 3.16 µM, first compound 0.03 µM): 1.29%
- viability, T/C (second compound 3.16 µM, first compound 0.0949 µM): 0.93%
- viability, T/C (second compound 3.16 µM, first compound 0.3 µM): 0.71%
- viability, T/C (second compound 10 µM, first compound 0.000949 µM): 1.47%
- viability, T/C (second compound 10 µM, first compound 0.003 µM): 0.58%
- viability, T/C (second compound 10 µM, first compound 0.00949 µM): 0.99%
- viability, T/C (second compound 10 µM, first compound 0.03 µM): 1.04%
- viability, T/C (second compound 10 µM, first compound 0.0949 µM): 0.51%
- viability, T/C (second compound 10 µM, first compound 0.3 µM): 1.04%

- IC50 (curve of compound): 1580 nM and 1000 nM
Compound: C#Cc1c(F)ccc2cc(O)cc(-c3ncc4c(N5CC6CCC(C5)N6)nc(OCC56CCCN5CC(F)C6)nc4c3F)c12 (stereo not drawn)
- viability, T/C (compound 0.0316 µM): 95.8% and 98.9%
- viability, T/C (compound 0.1 µM): 80.1% and 91.3%
- viability, T/C (compound 0.316 µM): 65.1% and 73.6%
- viability, T/C (compound 1 µM): 59.3% and 49.8%
- viability, T/C (compound 3.16 µM): 41.1% and 37.4%
- viability, T/C (compound 10 µM): 30.7% and 33.3%

- IC50 [1]: 123 nM
- IC50 [2]: 97.3 nM
- IC50 [3]: 28.9 nM
- IC50 [4]: 7.67 nM
- IC50 [5]: 3.86 nM
- IC50 [6]: < 3.16 nM
Compound: COc1c(OCCCN2CCOCC2)ccc2c3n(c(=NC(=O)c4cnc(N)nc4)nc12)CCN3 + CNC(=O)c1ccc(Nc2nc(OC3CCCC3)c3c(-c4ccc5nc(C)oc5c4)c[nH]c3n2)c(OC)c1
- viability, T/C (second compound 0.0316 µM, first compound 0.00316 µM): 112%
- viability, T/C (second compound 0.0316 µM, first compound 0.01 µM): 96.5%
- viability, T/C (second compound 0.0316 µM, first compound 0.0316 µM): 72.6%
- viability, T/C (second compound 0.0316 µM, first compound 0.1 µM): 54.6%
- viability, T/C (second compound 0.0316 µM, first compound 0.316 µM): 35.4%
- viability, T/C (second compound 0.0316 µM, first compound 1 µM): 25.2%
- viability, T/C (second compound 0.1 µM, first compound 0.00316 µM): 112%
- viability, T/C (second compound 0.1 µM, first compound 0.01 µM): 96.1%
- viability, T/C (second compound 0.1 µM, first compound 0.0316 µM): 71.8%
- viability, T/C (second compound 0.1 µM, first compound 0.1 µM): 48.7%
- viability, T/C (second compound 0.1 µM, first compound 0.316 µM): 33.8%
- viability, T/C (second compound 0.1 µM, first compound 1 µM): 21.2%
- viability, T/C (second compound 0.316 µM, first compound 0.00316 µM): 70.2%
- viability, T/C (second compound 0.316 µM, first compound 0.01 µM): 62.8%
- viability, T/C (second compound 0.316 µM, first compound 0.0316 µM): 47.7%
- viability, T/C (second compound 0.316 µM, first compound 0.1 µM): 35.5%
- viability, T/C (second compound 0.316 µM, first compound 0.316 µM): 22.9%
- viability, T/C (second compound 0.316 µM, first compound 1 µM): 14.4%
- viability, T/C (second compound 1 µM, first compound 0.00316 µM): 59.1%
- viability, T/C (second compound 1 µM, first compound 0.01 µM): 46.5%
- viability, T/C (second compound 1 µM, first compound 0.0316 µM): 33.8%
- viability, T/C (second compound 1 µM, first compound 0.1 µM): 19.7%
- viability, T/C (second compound 1 µM, first compound 0.316 µM): 15.6%
- viability, T/C (second compound 1 µM, first compound 1 µM): 13.3%
- viability, T/C (second compound 3.16 µM, first compound 0.00316 µM): 51.2%
- viability, T/C (second compound 3.16 µM, first compound 0.01 µM): 41.9%
- viability, T/C (second compound 3.16 µM, first compound 0.0316 µM): 29.5%
- viability, T/C (second compound 3.16 µM, first compound 0.1 µM): 20.7%
- viability, T/C (second compound 3.16 µM, first compound 0.316 µM): 13.5%
- viability, T/C (second compound 3.16 µM, first compound 1 µM): 11.7%
- viability, T/C (second compound 10 µM, first compound 0.00316 µM): 46.6%
- viability, T/C (second compound 10 µM, first compound 0.01 µM): 40.4%
- viability, T/C (second compound 10 µM, first compound 0.0316 µM): 28.9%
- viability, T/C (second compound 10 µM, first compound 0.1 µM): 18.4%
- viability, T/C (second compound 10 µM, first compound 0.316 µM): 12.7%
- viability, T/C (second compound 10 µM, first compound 1 µM): 10.5%

- IC50 (curve of compound): 2650 nM and 3330 nM
Compound: COc1cccc2c1C(=O)c1c(O)c3c(c(O)c1C2=O)CC(O)(C(=O)CO)CC3OC1CC(N)C(O)C(C)O1 (stereo not drawn)
- viability, T/C (compound 0.0316 µM): 100% and 103%
- viability, T/C (compound 0.1 µM): 87.1% and 86.2%
- viability, T/C (compound 0.316 µM): 76.5% and 79.6%
- viability, T/C (compound 1 µM): 59.4% and 62.6%
- viability, T/C (compound 3.16 µM): 49% and 51.9%
- viability, T/C (compound 10 µM): 35.5% and 36.7%
